IC50 data for 62 molecules are collected here from ChEMBL document CHEMBL1938264, “Novel 3,4-isoxazolediamides as potent inhibitors of chaperone heat shock protein 90” (J Med Chem, 2011).

pIC50: −log10 of the molar value.

One test deals with NCI-H460. Briefly: Cytotoxicity against human NCI-H460 after 72 hrs by sulforhodamine B assay. It counts as functional, cell-based. Particulars: NCI-H460, 72 h. (In general: Sulforhodamine B stains cellular protein and so reports cell mass.)
In test [1] the target is Heat shock protein HSP 90-beta (Homo sapiens, UniProt P08238). The test can be described thus: Binding affinity to Hsp90 after 4 hrs by fluorescence polarization assay.
Chain of Heat shock protein HSP 90-beta (P08238 whole entry): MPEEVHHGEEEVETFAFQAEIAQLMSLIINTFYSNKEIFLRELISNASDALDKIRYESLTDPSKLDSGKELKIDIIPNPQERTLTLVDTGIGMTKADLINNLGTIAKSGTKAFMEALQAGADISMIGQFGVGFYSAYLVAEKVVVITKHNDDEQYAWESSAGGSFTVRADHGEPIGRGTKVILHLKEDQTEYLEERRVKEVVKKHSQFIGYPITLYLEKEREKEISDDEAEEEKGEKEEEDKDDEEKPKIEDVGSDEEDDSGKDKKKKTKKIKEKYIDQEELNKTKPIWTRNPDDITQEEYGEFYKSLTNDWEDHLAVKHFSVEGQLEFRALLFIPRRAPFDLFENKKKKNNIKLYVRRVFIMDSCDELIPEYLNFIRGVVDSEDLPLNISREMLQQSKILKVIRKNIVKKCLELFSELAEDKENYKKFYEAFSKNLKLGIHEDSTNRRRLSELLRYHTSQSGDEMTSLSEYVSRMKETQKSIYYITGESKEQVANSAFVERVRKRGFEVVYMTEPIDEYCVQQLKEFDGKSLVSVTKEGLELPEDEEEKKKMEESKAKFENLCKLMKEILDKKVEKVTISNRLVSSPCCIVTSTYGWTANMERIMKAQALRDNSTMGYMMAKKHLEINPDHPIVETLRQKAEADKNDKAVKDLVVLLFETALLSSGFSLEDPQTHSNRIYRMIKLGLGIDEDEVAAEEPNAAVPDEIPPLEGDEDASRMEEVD

The term pIC50 denotes the negative decadic logarithm of the IC50, by convention in mol/L. Read a high pIC50 as a small IC50. As for `CCNC(=O)c1noc(-c2cc(C(C)C)c(O)cc2O)c1NC(=O)c1cc(C(C)=O)on1`, the figures for the negative-log IC50 (pIC50) (with NCI-H460; in test [1]) were 7.09 and 7.72, respectively.
Take `CCNC(=O)c1noc(-c2cc(Cl)c(O)cc2O)c1NC(=O)c1ccc(OC)c(OC)c1`: the pIC50 is under 6.00 with NCI-H460 and 6.79 in test [1].
For `CCNC(=O)c1noc(-c2cc(Cl)c(O)cc2O)c1NC(=O)c1sccc1C`, in that order: 6.39 and 7.13.
Turning to `CCNC(=O)c1noc(-c2cc(C(C)C)c(O)cc2O)c1NC(=O)[C@H]1CC[C@@H](N2CCOCC2)CC1`, the negative logarithm of the IC50 (pIC50) with NCI-H460 was 6.21; in test [1] it was 8.13.
For `CCNC(=O)c1noc(-c2cc(C(C)C)c(O)cc2O)c1NC(=O)c1ccc(N2CCNCC2)cc1`, in that order: under 6.00 and 7.49.
Regarding `CCNC(=O)c1noc(-c2cc(C(C)C)c(O)cc2O)c1NC(=O)[C@H]1CC[C@@H](CO)CC1`, the results for the negative logarithm of the IC50 (pIC50) (in the test with NCI-H460; in test [1]) were 6.06 and 7.82, respectively.
The corresponding values for `CCNC(=O)c1noc(-c2cc(C(C)C)c(O)cc2O)c1NC(=O)c1ccc2ccn(C)c2c1` are 7.06 and 7.47.
Consider `CCNC(=O)c1noc(-c2cc(Cl)c(O)cc2O)c1NC(=O)c1ccc(OC)cc1`, for which the negative-log IC50 (pIC50) in the test with NCI-H460 is under 6.00; in test [1], 6.74.
On to `CCNC(=O)c1noc(-c2cc(C(C)C)c(O)cc2O)c1NC(=O)[C@H]1CC[C@H](N)CC1`, for which the negative-log IC50 (pIC50) was under 6.00 in the test with NCI-H460 and 7.55 in test [1].
The corresponding values for `CCNC(=O)c1noc(-c2cc(Cl)c(O)cc2O)c1NC(=O)c1cc(OC)c(OC)c(OC)c1` are under 6.00 and 6.89.
The corresponding values for `CCNC(=O)c1noc(-c2cc(C(C)C)c(O)cc2O)c1NC(=O)[C@H]1CC[C@H](CO)CC1` are 6.22 and over 8.30.
For the molecule `CCNC(=O)c1noc(-c2cc(C(C)C)c(O)cc2O)c1NC(=O)c1nc(C)c(-c2ccc(F)cc2)s1`, the figures for the pIC50 (in the test on NCI-H460; in test [1]) were under 6.00 and 7.40, respectively.
For `CCNC(=O)c1noc(-c2cc(C(C)C)c(O)cc2O)c1NC(=O)c1ccc(Br)o1`, in that order: 7.72 and 7.66.
Regarding `CCNC(=O)c1noc(-c2cc(C(C)C)c(O)cc2O)c1NC(=O)c1ccc2ccsc2c1`, the pIC50 in the test on NCI-H460 was 6.74; in test [1], 7.70.
`CCNC(=O)c1noc(-c2cc(Cl)c(O)cc2O)c1NC1CCCCC1`: the pIC50 in the test on NCI-H460 was under 6.00; in test [1], 6.21.
For `CCNC(=O)c1noc(-c2cc(C(C)C)c(O)cc2O)c1NC(=O)c1sc(C)nc1C`, in that order: 6.25 and 8.00.
Regarding `CCNC(=O)c1noc(-c2cc(C(C)C)c(O)cc2O)c1NC(=O)[C@H]1CC[C@H](OC(=O)CN)CC1`, the pIC50 in the test with NCI-H460 is under 6.00; in test [1] it was over 8.30.
In the case of `CCNC(=O)c1noc(-c2cc(C(C)C)c(O)cc2O)c1NC(=O)[C@@H]1CC[C@H](CO)C1` (relative stereo), the results for the negative logarithm of the IC50 (pIC50) (with NCI-H460; in test [1]) were under 6.59 and 7.90, respectively.
The corresponding values for `CCNC(=O)c1noc(-c2cc(C(C)C)c(O)cc2O)c1NC(=O)c1ccc(OC)c(F)c1` are 7.26 and 7.47.
As to `CCNC(=O)c1noc(-c2cc(Cl)c(O)cc2O)c1NCc1ccc(OC)cc1`, the pIC50 in the test with NCI-H460 is under 6.00; in test [1], 6.37.
With `CCNC(=O)c1noc(-c2cc(C(C)C)c(O)cc2O)c1NC(=O)c1ccc(N(C)C)cc1`, the results for the pIC50 (in the test with NCI-H460; in test [1]) were 6.62 and 7.47, respectively.
For `CCNC(=O)c1noc(-c2cc(C(C)C)c(O)cc2O)c1NC(=O)c1ccc(N2CCCC2)cc1`, the pIC50 in the test on NCI-H460 was 6.09; in test [1] it was 7.66.
The corresponding values for `CCNC(=O)c1noc(-c2cc(C(C)C)c(O)cc2O)c1NC(=O)c1oc2ccccc2c1C` are under 6.00 and 6.59.
The corresponding values for `CCCCC[C@H]1CC[C@H](C(=O)Nc2c(C(=O)NCC)noc2-c2cc(C(C)C)c(O)cc2O)CC1` are under 6.00 and 6.59.
The corresponding values for `CCNC(=O)c1noc(-c2cc(Cl)c(O)cc2O)c1NC(=O)CCN1CCOCC1` are 6.89 and 6.77.
On to `CCNC(=O)c1noc(-c2cc(C(C)C)c(O)cc2O)c1NC(=O)C1CCNCC1`, for which the negative logarithm of the IC50 (pIC50) in the test on NCI-H460 is under 6.00; in test [1], over 8.30.
The corresponding values for `CCNC(=O)c1noc(-c2cc(Cl)c(O)cc2O)c1NC1CCN(C)CC1` are under 6.00 and 5.80.
In the case of `CCNC(=O)c1noc(-c2cc(C(C)C)c(O)cc2O)c1NC(=O)c1sc(-c2ccncc2)nc1C`, the pIC50 in the test on NCI-H460 is under 6.00; in test [1], 7.57.
For `C=CC(=O)Nc1c(C(=O)NCC)noc1-c1cc(Cl)c(O)cc1O`, in that order: under 6.00 and 6.78.
Regarding `CCNC(=O)c1noc(-c2cc(C(C)C)c(O)cc2O)c1NC(=O)C1CCN(C)CC1`, the negative-log IC50 (pIC50) with NCI-H460 was under 6.00; in test [1], 7.62.
For `CCNC(=O)c1noc(-c2cc(C(C)C)c(O)cc2O)c1NC(=O)c1ccc2ncoc2c1`, in that order: 6.96 and 7.82.
For the molecule `CCNC(=O)c1noc(-c2cc(C(C)C)c(O)cc2O)c1NC(=O)c1ccc(N2CCN(C)CC2)cc1`, the pIC50 is under 6.00 with NCI-H460 and 7.62 in test [1].
For `CCNC(=O)c1noc(-c2cc(Cl)c(O)cc2O)c1NC(=O)C(C)(C)C`, in that order: 6.51 and 7.07.
Consider `CCNC(=O)c1noc(-c2cc(C(C)C)c(O)cc2O)c1NC(=O)[C@H]1CC[C@@H](CN2CCOCC2)CC1`, for which the results for the pIC50 (in the test on NCI-H460; in test [1]) were 6.85 and 7.71, respectively.
The corresponding values for `CCNC(=O)c1noc(-c2cc(C(C)C)c(O)cc2O)c1NC(=O)[C@H]1CC[C@@H](C(N)=O)CC1` are 6.00 and over 8.30.
For `CCNC(=O)c1noc(-c2cc(C(C)C)c(O)cc2O)c1NC(=O)[C@H]1CC[C@H](CN2CCOCC2)CC1`, in that order: 6.89 and 8.06.
The corresponding values for `CCNC(=O)c1cc(C(=O)Nc2c(C(=O)NCC)noc2-c2cc(C(C)C)c(O)cc2O)on1` are under 6.00 and 7.62.
On to `CCNC(=O)c1noc(-c2cc(C(C)C)c(O)cc2O)c1NC(=O)[C@H]1CC[C@H](C(N)=O)CC1`, for which the negative-log IC50 (pIC50) with NCI-H460 was under 6.00; in test [1], over 8.30.
The corresponding values for `CCNC(=O)c1noc(-c2cc(C(C)C)c(O)cc2O)c1NC(C)=O` are 7.09 and 7.26.
For `CCNC(=O)c1noc(-c2cc(C(C)C)c(O)cc2O)c1NC(=O)c1ccc(OC)cc1`, in that order: 7.77 and 7.59.
For `CCNC(=O)c1noc(-c2cc(C(C)C)c(O)cc2O)c1NC(=O)C1CCC(C(F)(F)F)CC1` (centres undefined), in that order: 7.38 and 6.62.
Consider `CCNC(=O)c1noc(-c2cc(C(C)C)c(O)cc2O)c1NC(=O)[C@H]1CC[C@H](O)CC1`, for which the negative logarithm of the IC50 (pIC50) with NCI-H460 is under 6.00; in test [1], over 8.30.
The corresponding values for `CCNC(=O)c1noc(-c2cc(C(C)C)c(O)cc2O)c1NC(=O)[C@@H]1CC[C@H](C(=O)O)C1` are under 6.00 and 7.41.
As for `CCNC(=O)c1noc(-c2cc(C(C)C)c(O)cc2O)c1NC(=O)c1cc2ccccc2n1C`, the pIC50 is 6.44 with NCI-H460 and 7.21 in test [1].
The corresponding values for `CCNC(=O)c1noc(-c2cc(Cl)c(O)cc2O)c1NC(=O)c1ccc(Br)cc1` are under 6.00 and 6.82.
For the molecule `CCNC(=O)c1noc(-c2cc(Cl)c(O)cc2O)c1NCc1sccc1C`, the results for the pIC50 (in the test with NCI-H460; in test [1]) were under 6.00 and 6.64, respectively.
Consider `CCNC(=O)c1noc(-c2cc(C(C)C)c(O)cc2O)c1NC(=O)[C@H]1CC[C@H](CNS(=O)(=O)c2ccccc2)CC1`, for which the negative-log IC50 (pIC50) in the test on NCI-H460 was under 6.00; in test [1], over 8.30.
The corresponding values for `CCNC(=O)c1noc(-c2cc(C(C)C)c(O)cc2O)c1NC(=O)c1cccc2cccnc12` are 6.31 and 7.44.
As for `CCNC(=O)c1noc(-c2cc(C(C)C)c(O)cc2O)c1NC(=O)CCN1CCN(C)CC1`, the negative logarithm of the IC50 (pIC50) with NCI-H460 is under 6.00; in test [1], 6.92.
The corresponding values for `COc1ccc(C(=O)Nc2c(C(=O)N3CC(F)(F)C3)noc2-c2cc(Cl)c(O)cc2O)cc1` are under 6.00 and under 4.00.
As to `CCNC(=O)c1noc(-c2cc(C(C)C)c(O)cc2O)c1NC(=O)C1CC(O)C1` (centres undefined), the negative logarithm of the IC50 (pIC50) was 6.04 in the test on NCI-H460 and 7.85 in test [1].
For `CCNC(=O)c1noc(-c2cc(C(C)C)c(O)cc2O)c1NC(=O)c1oc2ccc(OC)cc2c1C`, in that order: 6.12 and 7.32.
Regarding `CCNC(=O)c1noc(-c2cc(C(C)C)c(O)cc2O)c1NC(=O)[C@H]1CC[C@H](CNS(=O)(=O)c2ccc(F)cc2)CC1`, the results for the pIC50 (in the test on NCI-H460; in test [1]) were 6.19 and 8.27, respectively.
Take `COc1ccc(C(=O)Nc2c(C(=O)NCC(F)(F)F)noc2-c2cc(Cl)c(O)cc2O)cc1`: the figures for the pIC50 (in the test on NCI-H460; in test [1]) were under 6.00 and 6.80, respectively.
As for `CCNC(=O)c1noc(-c2cc(C(C)C)c(O)cc2O)c1NC(=O)c1ccc(-n2cccc2)cc1`, the negative logarithm of the IC50 (pIC50) in the test on NCI-H460 was under 6.00; in test [1] it was 7.49.
Take `CCNC(=O)c1noc(-c2cc(C(C)C)c(O)cc2O)c1NC(=O)c1ccco1`: the negative logarithm of the IC50 (pIC50) was 7.66 in the test with NCI-H460 and over 8.30 in test [1].
The corresponding values for `CCNC(=O)c1noc(-c2cc(C(C)C)c(O)cc2O)c1NC(=O)c1cc(-c2ccccc2)on1` are under 6.00 and 6.60.
Regarding `CCNC(=O)c1noc(-c2cc(C(C)C)c(O)cc2O)c1NC(=O)[C@H]1CC[C@H](N2CCOCC2)CC1`, the pIC50 in the test on NCI-H460 was 6.17; in test [1] it was over 8.30.
With `CCNC(=O)c1noc(-c2cc(Cl)c(O)cc2O)c1NC(C)=O`, the figures for the pIC50 (in the test on NCI-H460; in test [1]) were under 6.00 and 7.43, respectively.
Turning to `CCNC(=O)c1noc(-c2cc(C(C)C)c(O)cc2O)c1NC(=O)[C@H]1CC[C@H](CN)CC1`, the figures for the negative logarithm of the IC50 (pIC50) (in the test on NCI-H460; in test [1]) were under 6.00 and 7.40, respectively.
For `CCNC(=O)c1noc(-c2cc(C(C)C)c(O)cc2O)c1NC(=O)[C@@H]1CC[C@H](C(=O)OC)C1`, in that order: 7.66 and over 8.30.
As to `CCNC(=O)c1noc(-c2cc(C(C)C)c(O)cc2O)c1NC(=O)[C@H]1CC[C@@H](O)CC1`, the pIC50 in the test on NCI-H460 is 6.30; in test [1], over 8.30.
